This passage reports GI50 and Ratio results from ChEMBL document CHEMBL1133824, “Amino acid phosphoramidate nucleosides: potential ADEPT/GDEPT substrates” (2001).

Common to all, as to assay type: functional
The subject of assay [1] is CCRF-CEM. Kind of assay: In vitro concentration required for 50% inhibition of growth of human leukemia cell line CCRF-CEM with hPAP (0.2 unit/mL).
Assay [2] has as its system CCRF-CEM. As to the kind of experiment: In vitro concentration required for 50% inhibition of growth of human leukemia cell line CCRF-CEM without hPAP (0.2 unit/mL).
Assay [3] is described as follows: Ratio of GI50 without hPAP/ GI50 with hPAP.

Regarding `COC(=O)[C@H](Cc1c[nH]c2ccccc12)NP(=O)(O)OCC1OC(n2cc(F)c(=O)[nH]c2=O)CC1O` (some centres not stated), the GI50 was determined as 0.9 nM in assay [1] and 4830 nM in assay [2]. Also, in assay [3], the Ratio was determined as 5370.
For `COC(=O)[C@H](Cc1ccccc1)NP(=O)(O)OCC1OC(n2cc(F)c(=O)[nH]c2=O)CC1O` (some centres not stated) the same measures were 0.8 nM, 463 nM and 578.
For `Nc1ccn([C@@H]2O[C@H](CO)[C@@H](O)[C@@H]2O)c(=O)n1` [CYTARABINE] the same measures were 99.8 nM, 90 nM and 0.902.
In the same order, the values of `O=c1[nH]c(=O)n([C@H]2C[C@H](O)[C@@H](CO)O2)cc1F` [FLOXURIDINE] are 0.6 nM, 2 nM and 3.33.
